Reference: PMC7054760, “Structural and biochemical evaluation of bisubstrate inhibitors of protein arginine N-methyltransferases PRMT1 and CARM1 (PRMT4)” (Biochemical Journal, 2020)
Like-named read-outs stand apart in the source and are kept apart here.

T1: CARM1_135–479 (Homo sapiens, UniProt Q86X55)
T1 construct: human CARM1, residues 135 to 479; MBP (N, cleaved yes); linker and TEV site […]; (N, cleaved yes); made in house; host or cells: E. coli BL21-CodonPlus (DE3)-RIL
T1 sequence (Q86X55 135-479): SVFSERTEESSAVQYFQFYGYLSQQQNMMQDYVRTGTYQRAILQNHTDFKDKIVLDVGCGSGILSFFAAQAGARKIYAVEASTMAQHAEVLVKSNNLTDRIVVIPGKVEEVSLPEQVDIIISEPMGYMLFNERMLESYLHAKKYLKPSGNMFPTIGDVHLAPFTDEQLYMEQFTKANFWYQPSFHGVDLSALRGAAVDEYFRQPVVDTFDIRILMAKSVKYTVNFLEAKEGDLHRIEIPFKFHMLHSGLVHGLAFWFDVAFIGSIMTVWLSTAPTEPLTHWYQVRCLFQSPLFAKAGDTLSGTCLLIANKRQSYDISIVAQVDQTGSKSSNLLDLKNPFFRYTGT

T2: human CARM1 (CARM1_135–479) (Homo sapiens, UniProt Q86X55)
T2 sequence (Q86X55 135-479): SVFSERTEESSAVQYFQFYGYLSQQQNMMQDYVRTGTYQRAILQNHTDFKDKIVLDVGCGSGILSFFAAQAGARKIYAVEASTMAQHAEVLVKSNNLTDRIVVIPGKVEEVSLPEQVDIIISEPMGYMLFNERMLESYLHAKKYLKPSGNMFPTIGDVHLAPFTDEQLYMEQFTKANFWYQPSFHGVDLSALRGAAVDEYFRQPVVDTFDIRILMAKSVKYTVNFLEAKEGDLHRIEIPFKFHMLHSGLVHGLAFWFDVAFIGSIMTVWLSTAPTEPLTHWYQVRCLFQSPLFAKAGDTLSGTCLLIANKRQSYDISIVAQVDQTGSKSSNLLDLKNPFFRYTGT

T3: CARM1 N161E (Homo sapiens, UniProt Q86X55, N161E)
T3 sequence (Q86X55 135-479 N161E): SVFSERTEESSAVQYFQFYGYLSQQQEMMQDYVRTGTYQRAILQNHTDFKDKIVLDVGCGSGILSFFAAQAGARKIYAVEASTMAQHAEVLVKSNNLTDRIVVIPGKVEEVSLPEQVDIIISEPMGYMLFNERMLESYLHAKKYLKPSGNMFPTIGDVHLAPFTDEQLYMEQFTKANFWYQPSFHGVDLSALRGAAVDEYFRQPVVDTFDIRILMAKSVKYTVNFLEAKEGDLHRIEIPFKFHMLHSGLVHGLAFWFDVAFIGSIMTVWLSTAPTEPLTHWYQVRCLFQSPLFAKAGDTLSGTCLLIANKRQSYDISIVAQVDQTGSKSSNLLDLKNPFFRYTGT

T4: CARM1 N265Y (Homo sapiens, UniProt Q86X55, N265Y)
T4 sequence (Q86X55 135-479 N265Y): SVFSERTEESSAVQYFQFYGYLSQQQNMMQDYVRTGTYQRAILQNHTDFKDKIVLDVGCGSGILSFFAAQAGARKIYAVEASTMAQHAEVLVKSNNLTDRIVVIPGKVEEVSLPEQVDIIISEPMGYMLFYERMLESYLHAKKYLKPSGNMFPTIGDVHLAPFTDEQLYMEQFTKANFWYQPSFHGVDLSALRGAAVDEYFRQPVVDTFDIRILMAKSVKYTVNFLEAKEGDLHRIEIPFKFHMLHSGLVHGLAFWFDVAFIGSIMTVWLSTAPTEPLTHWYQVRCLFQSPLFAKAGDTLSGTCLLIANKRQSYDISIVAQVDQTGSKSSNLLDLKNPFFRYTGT


How the values were obtained:
[1] = system: multiple myeloma xenograft model; set-up: method as in PMID 29269946; conditions: cited from earlier work
CARM1 = conditions: cited from earlier work
PRMT1_22–361 = PRMT1_22–361 (Homo sapiens, UniProt Q99873); experiment: Radiometric methylation assay, PRMT1 with H4(1–21) and [methyl-3H]-SAM; format: biochemical; conditions: 160 nM PRMT1, 40 µM H4(1–21), 0.23 µM [3H]-SAM, 30°C, 60 min; read-out: IC50 (95% confidence interval), PRMT1
CARM1_135–479 = molecular target: T1, CARM1_135–479; experiment: Radiometric methylation assay, CARM1 with H3(3–31) and [methyl-3H]-SAM; format: biochemical; conditions: 0.23 µM [3H]-SAM
[2] = molecular target: T2, human CARM1 (CARM1_135–479); experiment: Isothermal titration calorimetry (ITC) with CARM1 catalytic domain; format: binding; conditions: for -T∆S, CARM1: calculated indirectly; for ∆G, CARM1: calculated indirectly from best-fit Kd and ∆H; for Binding more strongly to CARM1 over PRMT1 (as judged by ITC): ratio of Kd values PRMT1/CARM1
[3] = molecular target: human PRMT1 (PRMT1_22–361) (Homo sapiens, UniProt Q99873); experiment: Isothermal titration calorimetry (ITC) with PRMT1; format: binding; conditions: for -T∆S, PRMT1: calculated indirectly
CARM1 N161E = molecular target: T3, CARM1 N161E; experiment: ITC with CARM1 N161E mutant; conditions: for N ± standard error, CARM1 N161E / ∆H ± standard error, CARM1 N161E / -T∆S, CARM1 N161E / ∆G, CARM1 N161E: ITC; for -T∆S, CARM1 N161E / ∆G, CARM1 N161E: calculated indirectly
CARM1 N265Y = molecular target: T4, CARM1 N265Y; experiment: ITC with CARM1 N265Y mutant; conditions: for N ± standard error, CARM1 N265Y / ∆H ± standard error, CARM1 N265Y / -T∆S, CARM1 N265Y / ∆G, CARM1 N265Y: ITC; for -T∆S, CARM1 N265Y / ∆G, CARM1 N265Y: calculated indirectly
other methyltransferases = system: other methyltransferases; set-up: method as in PMID 29719619; conditions: cited from earlier work
[4] = molecular target: the molecule itself; experiment: crystal structure; CARM1(135-479) co-crystallised with small-molecule inhibitors 4, 5, 6 and 7; sitting-drop vapour diffusion, 20°C; space group P2(1)2(1)2
[5] = 320 nM CARM1, 120 µM H3(3–31), read-out: IC50 (95% confidence interval), CARM1
[6] = ITC, 25°C, read-out: Kd ± standard error, CARM1
[7] = ITC, Table 2, wild-type, read-out: Kd ± standard error from curve fitting, CARM1 WT

human PRMT1 (PRMT1_22–361), sequence (Q99873 32-371): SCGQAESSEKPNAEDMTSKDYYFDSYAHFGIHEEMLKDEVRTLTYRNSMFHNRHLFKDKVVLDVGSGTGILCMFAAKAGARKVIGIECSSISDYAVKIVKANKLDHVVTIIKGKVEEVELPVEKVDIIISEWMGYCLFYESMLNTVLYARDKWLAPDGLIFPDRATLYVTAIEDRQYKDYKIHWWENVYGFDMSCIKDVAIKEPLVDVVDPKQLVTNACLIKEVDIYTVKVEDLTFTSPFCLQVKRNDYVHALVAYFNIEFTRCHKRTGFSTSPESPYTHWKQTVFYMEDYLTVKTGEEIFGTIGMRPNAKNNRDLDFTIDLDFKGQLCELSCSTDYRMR
PRMT1_22–361, sequence (Q99873 32-371): as above

| Molecule | IC50 (CARM1_135–479; [5]) | N (stoichiometry) ± standard error from curve fitting, CARM1 ([2]; ITC) | ∆H ± standard error from curve fitting, CARM1 ([2]; ITC) | Kd [2, 6] | -T∆S, CARM1 ([2]; ITC) | ∆G, CARM1 ([2]; ITC) | Kd [2, 7] | Kd (CARM1 N161E) | Kd (CARM1 N265Y) | N ± standard error, CARM1 N265Y (CARM1 N265Y) | ∆H ± standard error, CARM1 N265Y (CARM1 N265Y) | -T∆S, CARM1 N265Y (CARM1 N265Y) | ∆G, CARM1 N265Y (CARM1 N265Y) | N ± standard error, CARM1 N161E (CARM1 N161E) | ∆H ± standard error, CARM1 N161E (CARM1 N161E) | -T∆S, CARM1 N161E (CARM1 N161E) | ∆G, CARM1 N161E (CARM1 N161E) | further results |
| --- | --- | --- | --- | --- | --- | --- | --- | --- | --- | --- | --- | --- | --- | --- | --- | --- | --- | --- |
| CNC[C@@H](O)COc1ccc(Cl)c(-c2nc(-c3c(C)noc3C)c(C)c(N3CC4(CCN(C(=O)OC)CC4)C3)n2)c1 [EPZ022302/EZM2302] | – | – | – | – | – | – | – | – | – | – | – | – | – | – | – | – | – | Anti-tumour activity in vivo [1]: anti-tumour activity in vivo; IC50 (CARM1; read-out: CARM1 inhibitor potency): […] |
| N=C(N)NCCCN(CCCN)C[C@H]1O[C@@H](n2cnc3c(N)ncnc32)[C@H](O)[C@@H]1O [Inhibitor 4] | 2300 nM | 0.481 ± 0.0062 | -24.6 ± 0.633 kcal/mol | 3320 ± 335 nM | 17.2 kcal/mol | -7.48 kcal/mol | – | – | – | – | – | – | – | – | – | – | – | IC50 (PRMT1_22–361): 7200 nM; N (stoichiometry) ± standard error from curve fitting, PRMT1 [3]: 0.519 ± 0.0082; ∆H ± standard error from curve fitting, PRMT1 ([3]; 10: competition experiment): -16 ± 0.77 kcal/mol; Kd ([3]; 25°C, direct titration, 7: stoichiometry fixed to 0.5, read-out: Kd ± standard error, PRMT1): 10200 ± 996 nM; ∆G, PRMT1 ([3]; calculated indirectly from best-fit Kd and ∆H, 10: competition experiment): -6.81 kcal/mol; -T∆S, PRMT1 ([3]; 10: competition experiment): 9.2 kcal/mol |
| N=C(N)NCCCCCN(CC[C@H](N)C(=O)O)C[C@H]1O[C@@H](n2cnc3c(N)ncnc32)[C@H](O)[C@@H]1O [Inhibitor 7] | 24100 nM | 0.648 ± 0.032 | -18.6 ± 2.31 kcal/mol | 38100 ± 9610 nM | 12.5 kcal/mol | -6.02 kcal/mol | 38100 ± 9610 nM | 8180 ± 482 nM | – | – | – | – | – | – | – | – | – | – |
| NCCCN(CCCNc1ncccn1)C[C@H]1O[C@@H](n2cnc3c(N)ncnc32)[C@H](O)[C@@H]1O [Inhibitor 8] | 700 nM | 0.529 ± 0.0042 | -29.6 ± 0.445 kcal/mol | 2300 ± 162 nM | 22 kcal/mol | -7.7 kcal/mol | 2300 ± 162 nM | 1110 ± 201 nM | 5180 ± 1860 nM | 0.698 ± 0.051 | -15 ± 2.01 kcal/mol | 7.82 kcal/mol | -7.22 kcal/mol | 0.745 ± 0.012 | -27 ± 0.906 kcal/mol | 18.9 kcal/mol | -8.13 kcal/mol | – |
| NCCCN(CCCNc1ccccn1)C[C@H]1O[C@@H](n2cnc3c(N)ncnc32)[C@H](O)[C@@H]1O [Inhibitor 9] | 300 nM | 0.529 ± 0.025 | -20.6 ± 1.77 kcal/mol | 1140 ± 411 nM | 12.5 kcal/mol | -8.13 kcal/mol | 1140 ± 411 nM | 354 ± 34 nM | 3260 ± 458 nM | 1.07 ± 0.035 | -14.8 ± 0.803 kcal/mol | 7.31 kcal/mol | -7.48 kcal/mol | 0.914 ± 0.005 | -20.7 ± 0.28 kcal/mol | 11.9 kcal/mol | -8.8 kcal/mol | Binding more strongly to CARM1 over PRMT1 (as judged by ITC) [2]: ~15 fold |
| Nc1ncnc2c1ncn2[C@@H]1O[C@H](CN(CCCNc2ccccn2)CC[C@H](N)C(=O)O)[C@@H](O)[C@H]1O [Inhibitor 10] | – | 0.536 ± 0.0079 | -17.5 ± 0.459 kcal/mol | – | 9.35 kcal/mol | -8.13 kcal/mol | – | 181 ± 17 nM | 143000 ± 75900 nM | – | – | – | – | 1.02 ± 0.004 | -22.5 ± 0.232 kcal/mol | 13.3 kcal/mol | -9.2 kcal/mol | IC50 (CARM1_135–479; IC50 (95% confidence interval), CARM1, 320 nM CARM1, 120 µM H3(3–31)): 800 nM; Kd ([2]; Kd ± standard error from curve fitting, CARM1 WT, ITC, Table 2, wild-type): 1110 ± 132 nM; Kd ([2]; Kd ± standard error, CARM1, ITC, 25°C): 1110 ± 132 nM; Binding more strongly to CARM1 over PRMT1 (as judged by ITC) [2]: ~40 fold |
| Nc1ncnc2c1ncn2[C@@H]1O[C@H](CSCC[C@H](N)C(=O)O)[C@@H](O)[C@H]1O [SAH, S-Adenosylhomocysteine, reference compound] | – | 0.549 ± 0.0086 | -35.1 ± 1.1 kcal/mol | – | 27 kcal/mol | – | – | – | – | 0.737 ± 0.004 | -23.7 ± 0.251 kcal/mol | 15.8 kcal/mol | -7.96 kcal/mol | 0.692 ± 0.0047 | -29.9 ± 0.44 kcal/mol | 20.6 kcal/mol | -9.39 kcal/mol | N (stoichiometry) ± standard error from curve fitting, PRMT1 [3]: 0.485 ± 0.0037; ∆H ± standard error from curve fitting, PRMT1 ([3]; 10: competition experiment): -23.4 ± 0.335 kcal/mol; -T∆S, PRMT1 ([3]; 10: competition experiment): 15 kcal/mol |
| catalytic domain of human CARM1, residues 135 to 479 (domain or fragment, UniProt Q86X55 135-479, looked up, MBP and the linker removed with TEV protease; also called CARM1_(135–479); CARM1 catalytic domain; not shown: MBP, N-terminal, cleaved) SVFSERTEESSAVQYFQFYGYLSQQQNMMQDYVRTGTYQRAILQNHTDFKDKIVLDVGCGSGILSFFAAQAGARKIYAVEASTMAQHAEVLVKSNNLTDRIVVIPGKVEEVSLPEQVDIIISEPMGYMLFNERMLESYLHAKKYLKPSGNMFPTIGDVHLAPFTDEQLYMEQFTKANFWYQPSFHGVDLSALRGAAVDEYFRQPVVDTFDIRILMAKSVKYTVNFLEAKEGDLHRIEIPFKFHMLHSGLVHGLAFWFDVAFIGSIMTVWLSTAPTEPLTHWYQVRCLFQSPLFAKAGDTLSGTCLLIANKRQSYDISIVAQVDQTGSKSSNLLDLKNPFFRYTGT | – | – | – | – | – | – | – | – | – | – | – | – | – | – | – | – | – | binding result [4]: binds |
